Tests used:
[1] = system: Laodelphax striatella; experiment: Insecticidal test on Laodelphax striatella (rice seedling dip); assay type: in vivo; details: Laodelphax striatellus, 192 h, rice seedlings dipped 30 seconds, 3rd-instar larvae, 8 days after inoculation, read-out: insecticidal effect (corrected mortality rate), activity level
Excerpt: Insecticidal Test on Laodelphax striatella
The condensed heterocyclic compounds represented by the general formula (1) of the present invention or salts thereof were separately dispersed in water and diluted to 500 ppm, and rice plant seedlings (variety: Nihonbare) were dipped in the agrochemical dispersions for 30 seconds. After air-dried, each seedling was put into a separate glass test tube and inoculated with ten 3rd-instar larvae of Laodelphax striatella, and then the glass test tubes were capped with cotton plugs. At 8 days after the inoculation, the numbers of surviving larvae and dead larvae were counted, the corrected mortality rate was calculated according to the formula shown below, and the insecticidal effect was evaluated according to the criteria of Test Example 1. Corrected mortality rate (%)=100×(Survival rate in a non-treatment plot−Survival rate in a treatment plot)/Survival rate in a non-treatment plot [Math. 2]

[2] = system: Plutella xylostella; experiment: Insecticidal test on Plutella xylostella (dip of Chinese cabbage seedlings with laid eggs); assay type: in vivo; details: 144 h, seedlings with laid eggs dipped about 30 seconds, 25° C., 6 days after dip treatment, read-out: insecticidal effect (corrected mortality rate), activity level
Excerpt: Insecticidal Test on Plutella xylostella
Adults of Plutella xylostella were released onto Chinese cabbage seedlings and allowed to lay eggs thereon. At 2 days after the release of the adults, the Chinese cabbage seedlings with laid eggs were dipped for about 30 seconds in agrochemical dispersions diluted to 500 ppm, each of which contained a different condensed heterocyclic compound represented by the general formula (1) of the present invention as an active ingredient. After air-dried, the seedlings were kept in a thermostatic chamber at 25° C. At 6 days after the dip treatment, the number of hatched larvae per plot was counted, the mortality rate was calculated according to the formula shown below, and the insecticidal effect was evaluated according to the criteria of Test Example 1. This test was conducted in triplicate using 10 adults of Plutella xylostella per plot. Corrected mortality rate (%)=100×(Number of hatched larvae in a non-treatment plot−Number of hatched larvae in a treatment plot)/Number of hatched larvae in a non-treatment plot [Math. 3]

In the case of `CCS(=O)(=O)c1cc(C(F)(F)F)ccc1C1=Nc2cc(C(F)(F)F)cnc2C1(F)F` [Compound 1-1], the mortality at 500 ppm [1] is reported as 100% and the mortality at 500 ppm [2] is reported as 100%.
With `CC[S+]([O-])c1cc(C(F)(F)F)cnc1C1=Nc2cc(C(F)(F)F)cnc2C1(F)F` (stereo not shown) [Compound 1-9, 2-(3-Ethylsulfinyl-5-trifluoromethylpyridin-2-yl)-3,3-difluoro-6-trifluoromethyl-3H-pyrrolo[3,2-b]pyridine] the mortality at 500 ppm [1] was 100% and the mortality at 500 ppm [2] was 100%.
`CCS(=O)(=O)c1cc(C(F)(F)F)cnc1C1=Nc2cc(C(F)(F)F)cnc2C1(F)F` [Compound 1-10, 2-(3-Ethylsulfonyl-5-trifluoromethylpyridin-2-yl)-3,3-difluoro-6-trifluoromethyl-3H-pyrrolo[3,2-b]pyridine] gave a mortality at 500 ppm [1] of 100% and a mortality at 500 ppm [2] of 100%.
For `CCS(=O)(=O)c1cc(-c2ccc(F)cc2)cnc1C1=Nc2cc(C(F)(F)F)cnc2C1(F)F` [Compound 1-19, 2-(3-Ethylsulfonyl-5-(4-fluorophenyl)pyridin-2-yl)-3,3-difluoro-6-trifluoromethyl-3H-pyrrolo[3,2-b]pyridine], the mortality at 500 ppm [1] was 100% and the mortality at 500 ppm [2] was 100%.
In the case of `CCS(=O)(=O)c1cc(-c2cccc(C(F)(F)F)c2)cnc1C1=Nc2cc(C(F)(F)F)cnc2C1(F)F` [Compound 1-20, 2-(3-Ethylsulfonyl-5-(3-trifluoromethylphenyl)pyridin-2-yl)-3,3-difluoro-6-trifluoromethyl-3H-pyrrolo[3,2-b]pyridine], the mortality at 500 ppm [1] is reported as 100% and the mortality at 500 ppm [2] is reported as 100%.
